From ChEMBL document CHEMBL5360657, “Discovery of the TLR7/8 Antagonist MHV370 for Treatment of Systemic Autoimmune Diseases” (ACS Med Chem Lett, 2023)

What was measured:
[1] = Clast in mouse at 20 mg/kg, po; assay type: ADME, organism-based; conditions: in vivo, read-out: Clast
[2] = Cmax in mouse at 20 mg/kg, po; assay type: ADME, organism-based; design: dose 20 mg/kg, route po; conditions: in vivo
[3] = Clearance in mouse at 3 mg/kg, iv; assay type: ADME, organism-based; conditions: in vivo
[4] = Efflux ratio of permeability basolateral to apical over apical to basolateral side in human Caco-2 cells; assay type: ADME, cell-based
[5] = biological target: Toll-like receptor 7 (Mus musculus) (UniProt P58681); assay: In vivo antagonist activity against TLR7 in mouse assessed as inhibition of IFN alpha level at 10 mg/kg, po measured after 2 hrs by LC-MS/MS analysis relative to control
[6] = biological target: Toll-like receptor 7 (Mus musculus) (UniProt P58681); assay: In vivo antagonist activity against TLR7 in mouse assessed as suppression of IFN alpha level at 10 mg/kg, po measured at 3 hrs by LC-MS/MS analysis
[7] = biological target: Toll-like receptor 7 (Mus musculus) (UniProt P58681); assay: In vivo antagonist activity against TLR7 in mouse assessed as suppression of IFN alpha level at 30 mg/kg, po measured at 3 hrs by LC-MS/MS analysis
[8] = biological target: Toll-like receptor 7 (Mus musculus) (UniProt P58681); assay: In vivo antagonist activity against TLR7 in po dosed mouse assessed as suppression of IFN alpha level measured at 3 hrs by LC-MS/MS analysis; conditions: dose 1-30 mg/kg
[9] = biological target: T1, Toll-like receptor 7 (Homo sapiens, UniProt Q9NYK1); assay: Antagonist activity at TLR7 in human Whole blood cell assessed as reduction in IFN-alpha level measured after 30 mins; assay type: tissue-based
T1 sequence (Q9NYK1 whole entry): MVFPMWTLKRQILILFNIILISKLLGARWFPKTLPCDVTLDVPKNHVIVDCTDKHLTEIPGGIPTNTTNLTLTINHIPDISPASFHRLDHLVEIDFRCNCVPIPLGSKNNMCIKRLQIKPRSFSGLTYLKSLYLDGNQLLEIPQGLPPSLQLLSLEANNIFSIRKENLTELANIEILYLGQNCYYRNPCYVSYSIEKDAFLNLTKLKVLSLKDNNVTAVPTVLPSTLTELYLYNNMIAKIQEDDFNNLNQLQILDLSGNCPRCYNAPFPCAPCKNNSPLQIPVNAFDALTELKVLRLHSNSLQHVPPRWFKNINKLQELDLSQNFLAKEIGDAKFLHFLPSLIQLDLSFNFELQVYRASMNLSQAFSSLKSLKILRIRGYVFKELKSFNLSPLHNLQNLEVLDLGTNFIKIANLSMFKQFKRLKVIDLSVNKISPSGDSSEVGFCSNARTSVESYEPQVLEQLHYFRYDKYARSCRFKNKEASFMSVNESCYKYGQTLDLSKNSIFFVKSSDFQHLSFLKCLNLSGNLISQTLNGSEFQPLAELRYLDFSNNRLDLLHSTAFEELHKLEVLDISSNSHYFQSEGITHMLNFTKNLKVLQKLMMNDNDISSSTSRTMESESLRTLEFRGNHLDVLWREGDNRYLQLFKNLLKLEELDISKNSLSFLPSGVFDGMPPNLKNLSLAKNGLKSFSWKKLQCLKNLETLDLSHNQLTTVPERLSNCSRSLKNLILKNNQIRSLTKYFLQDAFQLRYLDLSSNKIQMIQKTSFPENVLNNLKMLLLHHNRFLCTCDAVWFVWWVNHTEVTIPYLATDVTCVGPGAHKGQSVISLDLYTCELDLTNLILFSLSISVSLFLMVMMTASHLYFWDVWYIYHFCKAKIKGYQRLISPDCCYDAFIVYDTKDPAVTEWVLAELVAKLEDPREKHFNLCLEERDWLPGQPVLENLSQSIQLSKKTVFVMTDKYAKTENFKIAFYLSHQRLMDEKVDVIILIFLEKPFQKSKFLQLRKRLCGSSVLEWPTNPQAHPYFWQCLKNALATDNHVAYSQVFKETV

[10] = biological target: Toll-like receptor 7 (Mus musculus) (UniProt P58681); assay: In vivo antagonist activity against TLR7 in mouse assessed as inhibition of TNF level at 10 mg/kg, po measured after 2 hrs by LC-MS/MS analysis relative to control
[11] = biological target: T2, Toll-like receptor 9 (Mus musculus, UniProt Q9EQU3); assay: Antagonist activity at TLR9 in mouse Splenocyte assessed as reduction in IFN-alpha level measured after 20 hrs by Spectramax M5 method; assay type: cell-based
T2 sequence (Q9EQU3 whole entry): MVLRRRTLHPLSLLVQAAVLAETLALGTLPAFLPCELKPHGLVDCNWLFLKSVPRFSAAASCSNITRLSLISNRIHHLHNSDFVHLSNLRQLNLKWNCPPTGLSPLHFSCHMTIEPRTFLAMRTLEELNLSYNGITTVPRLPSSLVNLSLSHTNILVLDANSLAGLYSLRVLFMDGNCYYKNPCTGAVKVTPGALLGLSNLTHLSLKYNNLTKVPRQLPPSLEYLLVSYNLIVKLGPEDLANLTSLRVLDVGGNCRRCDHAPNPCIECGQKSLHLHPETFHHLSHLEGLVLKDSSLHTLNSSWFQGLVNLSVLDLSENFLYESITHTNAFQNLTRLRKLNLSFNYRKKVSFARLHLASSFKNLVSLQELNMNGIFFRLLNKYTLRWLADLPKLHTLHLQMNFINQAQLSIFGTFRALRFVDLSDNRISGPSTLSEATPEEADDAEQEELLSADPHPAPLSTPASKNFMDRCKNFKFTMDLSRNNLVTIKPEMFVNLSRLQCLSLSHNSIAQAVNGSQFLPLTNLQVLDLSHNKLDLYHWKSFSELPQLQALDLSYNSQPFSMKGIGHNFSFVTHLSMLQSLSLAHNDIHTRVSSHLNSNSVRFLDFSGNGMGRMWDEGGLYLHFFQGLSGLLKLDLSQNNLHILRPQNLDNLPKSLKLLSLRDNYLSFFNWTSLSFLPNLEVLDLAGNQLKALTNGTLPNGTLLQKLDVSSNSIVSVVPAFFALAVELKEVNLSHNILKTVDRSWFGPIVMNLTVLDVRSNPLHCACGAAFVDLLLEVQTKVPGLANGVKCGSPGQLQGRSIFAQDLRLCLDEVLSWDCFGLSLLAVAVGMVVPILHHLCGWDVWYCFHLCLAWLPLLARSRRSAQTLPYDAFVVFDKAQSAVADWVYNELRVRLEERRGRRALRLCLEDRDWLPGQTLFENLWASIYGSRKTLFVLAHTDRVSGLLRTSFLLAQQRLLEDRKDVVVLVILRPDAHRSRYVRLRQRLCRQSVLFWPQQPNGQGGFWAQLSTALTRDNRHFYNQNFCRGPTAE

[12] = biological target: T2, Toll-like receptor 9; assay: Antagonist activity at TLR9 in mouse Whole blood cell assessed as reduction in IFN-alpha level measured after 20 hrs by AlphaLISA method; assay type: tissue-based
[13] = biological target: Toll-like receptor 4 (Homo sapiens, UniProt O00206); assay: Antagonist activity at TLR4 in human Whole blood cell assessed as reduction in IL-6 level measured after 30 mins; assay type: tissue-based
Sequence of Toll-like receptor 4 (O00206 whole entry): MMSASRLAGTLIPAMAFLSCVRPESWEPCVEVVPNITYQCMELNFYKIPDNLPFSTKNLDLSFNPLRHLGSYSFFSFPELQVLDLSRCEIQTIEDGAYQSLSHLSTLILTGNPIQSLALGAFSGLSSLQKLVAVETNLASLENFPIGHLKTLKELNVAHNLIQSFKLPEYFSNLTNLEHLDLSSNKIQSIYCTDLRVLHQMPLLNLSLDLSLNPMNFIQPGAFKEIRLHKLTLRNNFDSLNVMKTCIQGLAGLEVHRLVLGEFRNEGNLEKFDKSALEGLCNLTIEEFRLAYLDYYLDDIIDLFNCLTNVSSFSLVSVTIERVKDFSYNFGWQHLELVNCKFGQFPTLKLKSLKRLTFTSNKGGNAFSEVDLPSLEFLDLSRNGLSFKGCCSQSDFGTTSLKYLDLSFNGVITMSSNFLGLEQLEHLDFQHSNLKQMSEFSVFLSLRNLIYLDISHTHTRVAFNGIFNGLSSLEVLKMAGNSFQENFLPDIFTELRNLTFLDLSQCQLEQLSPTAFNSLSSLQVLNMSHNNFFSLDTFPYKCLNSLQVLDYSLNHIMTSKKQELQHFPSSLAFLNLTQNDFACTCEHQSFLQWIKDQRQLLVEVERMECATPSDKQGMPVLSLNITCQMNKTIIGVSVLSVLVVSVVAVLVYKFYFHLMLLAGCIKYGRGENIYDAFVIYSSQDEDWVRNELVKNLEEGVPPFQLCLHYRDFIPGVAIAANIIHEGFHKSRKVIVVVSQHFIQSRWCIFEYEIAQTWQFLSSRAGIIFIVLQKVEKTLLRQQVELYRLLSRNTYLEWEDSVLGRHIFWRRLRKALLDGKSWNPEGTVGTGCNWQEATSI

Row | concentration [1] [nM] | Cmax [2] [nM] | clearance [3] [mL/min/kg] | efflux ratio [4] | SMILES | inhibition in vivo at 10 mg/kg [5] [%] | Activity [6] [ng/mL] | Activity [7] [ng/mL] | Activity [8] | IC50 [9] [µM] | inhibition in vivo at 10 mg/kg [10] [%] | IC50 [11] [µM] | IC50 [12] [µM] | IC50 [13] [µM]
1 | 35 | 321 | 24 | 7.5 | Cc1cc(N2CCc3c(c(C)nn3CC34CCC(N)(CC3)CC4)C2)c2cnn(C)c2n1 | – | – | – | – | – | – | – | – | –
2 | – | – | – | – | Cc1cc(N2CCc3c(c(C)nn3CC34CCC(NC(=O)[C@@H]5COCCN5)(CC3)CC4)C2)c2cnn(C)c2n1 [MHV-370] | ~100 | 550 | 1347 | Dose-Dependent Effect | 0.007 | ~100 | > 1 | > 10 | > 10
